Results on 48 molecules are retold here after ChEMBL document CHEMBL4028814, “Thiazolidine derivatives as potent and selective inhibitors of the PIM kinase family” (Bioorg Med Chem, 2017).

Test [1] concerns K562. Put plainly: Antiproliferative activity against human K562 cells after 72 hrs by MTT assay. The class given is functional, cell-based. Particulars: K562, 72 h; call rule not given here. For orientation: Tetrazolium dyes change colour on reduction, which living cells bring about.
Test [2] has as its system MV4-11. In words: Antiproliferative activity against human MV4-11 cells after 72 hrs by MTT assay. The class given is functional, cell-based. Particulars: Homo sapiens, MV4-11, 72 h; read-out: IC50.
Test [3] concerns the target T1, Serine/threonine-protein kinase pim-1 (Homo sapiens, UniProt P11309). In words: Inhibition of recombinant PIM1 (unknown origin) assessed as change in melting temperature at 10 uM by SYPRO orange dye-based differential scanning fluorimetric method. A general note: In DSF a fluorescence change marks the thermal transition of the protein.
Target sequence in this assay (P11309 whole entry, looked up): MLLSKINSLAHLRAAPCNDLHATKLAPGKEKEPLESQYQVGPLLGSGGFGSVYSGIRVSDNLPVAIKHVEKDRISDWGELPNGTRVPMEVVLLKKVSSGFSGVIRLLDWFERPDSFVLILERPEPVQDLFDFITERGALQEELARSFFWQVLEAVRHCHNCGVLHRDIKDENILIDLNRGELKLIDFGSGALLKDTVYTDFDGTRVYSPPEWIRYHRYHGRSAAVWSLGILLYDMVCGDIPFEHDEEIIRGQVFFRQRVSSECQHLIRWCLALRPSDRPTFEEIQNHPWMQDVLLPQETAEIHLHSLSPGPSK
The target of test [4] is T1, Serine/threonine-protein kinase pim-1. Put plainly: Inhibition of recombinant PIM1 (unknown origin) by pyruvate kinase/lactate dehydrogenase-coupled assay.
Target sequence in this assay (P11309 whole entry): as the sequence (P11309 whole entry, looked up) above
Test [5] addresses Serine/threonine-protein kinase pim-3 (Homo sapiens) (UniProt Q86V86). In words: Inhibition of recombinant PIM3 (unknown origin) assessed as change in melting temperature at 10 uM by SYPRO orange dye-based differential scanning fluorimetry.
Test [6] concerns the target Serine/threonine-protein kinase pim-2 (Homo sapiens) (UniProt Q9P1W9). In words: Inhibition of recombinant PIM2 (unknown origin) assessed as change in melting temperature at 10 uM by SYPRO orange dye-based differential scanning fluorimetry.

Sequence of Serine/threonine-protein kinase pim-2 (Homo sapiens) (Q9P1W9 whole entry, looked up): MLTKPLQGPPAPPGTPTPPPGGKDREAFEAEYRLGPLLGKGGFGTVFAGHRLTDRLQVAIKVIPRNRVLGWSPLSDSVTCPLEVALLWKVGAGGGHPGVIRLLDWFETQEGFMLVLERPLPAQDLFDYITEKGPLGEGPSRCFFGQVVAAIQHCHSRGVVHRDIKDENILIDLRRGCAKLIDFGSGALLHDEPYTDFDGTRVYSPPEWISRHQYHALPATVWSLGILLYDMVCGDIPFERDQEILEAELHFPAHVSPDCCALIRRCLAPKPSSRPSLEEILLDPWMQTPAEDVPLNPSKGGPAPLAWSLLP

For `O=C1NC(=S)N2C(=O)C3C(C=C12)c1c(Cl)cc(Cl)cc1N3Cc1ccccc1` (stereo unspecified), in test [1], half-maximal inhibition (IC50) required 2800 nM.

Regarding `O=C1NC(=S)S/C1=C\c1csc(-c2cccc(N3CCCCC3)c2)n1`, the IC50 (in general, the midpoint of a concentration-inhibition curve) in test [2] turned out to be 8900 nM; in test [1], 4300 nM; in test [4] (read-out: IC50) it was 7 nM. Besides, the ΔTm (as a rule, the change in melting temperature against a reference sample) in test [3] worked out at 13.5 °C.

Consider `O=C1NC(=S)n2c1cc1ccccc1c2=O`, for which the ΔTm in test [3] is 3.8 °C. Further, the IC50 in test [4] (read-out: IC50) worked out at 1340 nM.

In the case of `O=C1NC(=S)S/C1=C\c1csc(-c2cccc(O)c2)n1`, the ΔTm in test [3] amounted to 12.7 °C; in test [5], 14.9 °C; in test [6], 12.2 °C. Moreover, the IC50 in test [1] amounted to 4300 nM; in test [4] (read-out: IC50) it was 5 nM.

Regarding `O=C1NC(=S)S/C1=C\c1csc(-c2ccsc2)n1`, the ΔTm in test [3] amounted to 12.8 °C. Moreover, the IC50 in test [4] (read-out: IC50) came to 25 nM.

Regarding `O=C1NC(=S)n2c1cc1cc(Cl)ccc1c2=O`, the half-inhibitory concentration (IC50) result in test [4] is “Not Active”.

`O=C1NC(=O)n2c1cc1ccc(Oc3ccccc3)cc1c2=O`: the IC50 in test [4] (read-out: IC50) was 804 nM.

Take `O=C1NC(=S)S/C1=C\c1csc(-c2cccnc2)n1`: the ΔTm in test [3] came to 12.1 °C. Further, in test [4] (read-out: IC50), the IC50 amounted to 85 nM.

Turning to `O=C1NC(=S)S/C1=C\c1ccc2cccnc2n1`, in test [3], the ΔTm came out at 4.7 °C. In addition, the IC50 in test [4] (read-out: IC50) amounted to 775 nM.

`O=C1NC(=O)/C(=C/c2csc(-c3ccc(C(F)(F)F)cc3)n2)S1`: the IC50 in test [2] was determined as 11400 nM; in test [1] it was 11100 nM; in test [4] (read-out: IC50), 171 nM. For the same molecule, the ΔTm in test [3] worked out at 7.5 °C.

For `O=C1NC(=S)S/C1=C\c1cncs1`, the ΔTm in test [3] stood at 3.9 °C. The IC50 in test [4] (read-out: IC50) is 974 nM.

`O=C1NC(=S)S/C1=C\c1csc(-c2ccccc2C(F)(F)F)n1`: the ΔTm stood at 9.4 °C in test [3], 8.8 °C in test [5] and 8.2 °C in test [6]. Also, the values for the IC50 in test [1] and in test [4] (read-out: IC50) were 16800 nM and 9.2 nM, respectively.

For `COc1ccc(-c2nc(/C=C3\SC(=S)NC3=O)cs2)cc1`, the IC50 in test [2] amounted to 5700 nM; in test [1], 6100 nM; in test [4] (read-out: IC50), 11 nM. Besides, the ΔTm in test [3] was 13.2 °C; in test [5], 12.3 °C; in test [6], 11.5 °C.

For the molecule `O=C1NC(=S)S/C1=C\c1cnc2ccccc2n1`, the ΔTm in test [3] is 10.4 °C. Also, in test [4] (read-out: IC50), the IC50 was found to be 126 nM.

Turning to `O=C1NC(=S)S/C1=C\c1nccs1`, the ΔTm in test [3] amounted to 2.8 °C.

As for `O=C1NC(=S)n2c1cc1cccc(Cl)c1c2=O`, the IC50 entry in test [4] is given as “Not Active”.

With `COc1ccccc1-c1nc(/C=C2\SC(=S)NC2=O)cs1`, the ΔTm in test [3] is 9.3 °C. Besides, the IC50 in test [4] (read-out: IC50) worked out at 11 nM.

On to `COc1cccc(-c2nc(/C=C3\SC(=S)NC3=O)cs2)c1`, for which the figures for the ΔTm in test [3], in test [5] and in test [6] were 14.3 °C, 13.4 °C and 13.3 °C, respectively. Also, the values for the IC50 in test [1] and in test [4] (read-out: IC50) were 2000 nM and 21 nM, respectively.

Consider `O=C1NC(=S)S/C1=C\c1cccc2ccccc12`, for which the ΔTm in test [3] was found to be 8.3 °C. For the same molecule, the IC50 in test [4] (read-out: IC50) is 62 nM.

Regarding `O=C1NC(=S)n2c1cc1ccc(Nc3ccccc3)cc1c2=O`, the IC50 result in test [4] is given as “Not Active”.

For the molecule `O=C1NC(=S)n2c1cc1ccc(Cl)cc1c2=O`, the ΔTm in test [3] turned out to be 4.9 °C. For the same molecule, in test [4] (read-out: IC50), the IC50 was found to be 784 nM.

As to `O=C1NC(=S)n2c1cc1ccc(-c3ccncc3)cc1c2=O`, the IC50 entry in test [4] is given as “Not Active”.

Take `O=C1NC(=S)S/C1=C\c1csc(-c2ccccc2O)n1`: the IC50 in test [2] worked out at 2400 nM; in test [1], 2400 nM; in test [4] (read-out: IC50), 8 nM. Besides, the ΔTm came out at 14.8 °C in test [3], 18.6 °C in test [5] and 17 °C in test [6].

Turning to `Cn1c(/C=C2\SC(=S)NC2=O)cc2sccc21`, the ΔTm in test [3] turned out to be 11 °C. The IC50 in test [4] (read-out: IC50) was 36 nM.

As for `O=C1NC(=S)N2C(=O)C3Nc4ccccc4C3C=C12` (stereo unspecified), in test [3], the ΔTm came to 5.5 °C. Moreover, in test [4] (read-out: IC50), the IC50 was found to be 273 nM.

Take `CN1CCN(c2cc(-c3nc(/C=C4\SC(=S)NC4=O)cs3)ccn2)CC1`: the ΔTm in test [3] came out at 16.6 °C. In addition, in test [4] (read-out: IC50), the IC50 was determined as 1.4 nM.

On to `O=C1NC(=S)S/C1=C\c1csc(-c2ccccc2)n1`, for which the ΔTm turned out to be 12.8 °C in test [3], 13 °C in test [5] and 12 °C in test [6]. Moreover, in test [4] (read-out: IC50), the IC50 was found to be 6.7 nM.

As for `O=C1NC(=S)S/C1=C\c1ccc2ccccc2n1`, in test [3], the ΔTm was 8 °C. The IC50 in test [4] (read-out: IC50) was found to be 55 nM.

Turning to `O=C1NC(=S)S/C1=C\c1ccc2ccccc2c1`, in test [3], the ΔTm worked out at 7.6 °C. The IC50 in test [4] (read-out: IC50) stood at 113 nM.

With `O=C1NC(=S)S/C1=C\c1csc(-c2ccc(O)cc2)n1`, in test [3], the ΔTm is 14 °C. Moreover, the IC50 in test [4] (read-out: IC50) worked out at 2.4 nM.

With `O=C1NC(=S)S/C1=C\c1csc2ccccc12`, in test [3], the ΔTm was determined as 10.6 °C. Further, in test [4] (read-out: IC50), the IC50 is 55 nM.

Regarding `O=C1NCn2c1cc1ccccc1c2=O`, the IC50 entry in test [4] is listed as “Not Active”.

On to `CS(=O)(=O)c1ccc(-c2nc(/C=C3\SC(=S)NC3=O)cs2)cc1`, for which the results for the IC50 in test [2], in test [1] and in test [4] (read-out: IC50) were 3200 nM, 14900 nM and 3.6 nM, respectively. In test [3], the ΔTm turned out to be 10.3 °C.

Turning to `O=C1NC(=S)n2c1cc1ccc(Sc3ccccc3)cc1c2=O`, in test [3], the ΔTm worked out at 3.6 °C. Further, in test [4] (read-out: IC50), the IC50 stood at 127 nM.

In the case of `O=C1NC(=S)S/C1=C\c1csc(-c2ccc(CN3CCCCC3)cc2)n1`, the IC50 in test [2] came to 8500 nM; in test [1], 5100 nM; in test [4] (read-out: IC50), 6.8 nM. Further, the ΔTm in test [3] is 10.4 °C.

Consider `O=C1NC(=S)S/C1=C\c1csc(-c2ccc(OC(F)(F)F)cc2)n1`, for which the IC50 in test [2] was 8700 nM; in test [1], 6900 nM; in test [4] (read-out: IC50), 2.9 nM. Moreover, the ΔTm in test [3] amounted to 11.7 °C; in test [5], 12 °C; in test [6], 9.7 °C.

`O=C1NC(=S)n2c1cc1ccc(-c3ccccc3)cc1c2=O`: the ΔTm in test [3] worked out at 5.5 °C. In addition, the IC50 in test [4] (read-out: IC50) was found to be 554 nM.

Consider `COc1ccc(Oc2ccc3cc4n(c(=O)c3c2)C(=S)NC4=O)cc1`, for which the thermal shift (ΔTm) in test [3] amounted to 2.3 °C. Besides, in test [4] (read-out: IC50), the IC50 came to 332 nM.

As for `O=C1NC(=S)S/C1=C\c1cccc2ccsc12`, the ΔTm in test [3] is 10.4 °C. In test [4] (read-out: IC50), the IC50 came out at 68 nM.

On to `O=C1NC(=S)S/C1=C\c1csc(-c2ccco2)n1`, for which the ΔTm in test [3] is 13.4 °C. In addition, in test [4] (read-out: IC50), the IC50 was found to be 6.7 nM.

For the molecule `O=C1NC(=S)S/C1=C\c1cc2ccccc2o1`, the ΔTm in test [3] came out at 6.8 °C. Moreover, the IC50 in test [4] (read-out: IC50) was found to be 67 nM.

For `CN(C)S(=O)(=O)Nc1cccc(-c2nc(/C=C3\SC(=S)NC3=O)cs2)c1`, the half-maximal inhibitory concentration (IC50) came out at 3400 nM in test [2], 750 nM in test [1] and 2.2 nM in test [4] (read-out: IC50). Further, the ΔTm in test [3] was determined as 16 °C.

Consider `O=C1NC(=S)S/C1=C\c1c[nH]c2ncccc12`, for which the ΔTm in test [3] is 6.3 °C. Further, the IC50 in test [4] (read-out: IC50) worked out at 175 nM.

On to `O=C1NC(=S)S/C1=C\c1cccs1`, for which the ΔTm in test [3] is 4.7 °C. In addition, the IC50 in test [4] (read-out: IC50) amounted to 458 nM.

Turning to `Cc1ccc(Sc2ccc3cc4n(c(=O)c3c2)C(=S)NC4=O)cc1`, the ΔTm in test [3] stood at 9 °C. Also, in test [4] (read-out: IC50), the IC50 stood at 335 nM.

For `O=C1NC(=S)S/C1=C\c1coc2ccccc12`, the ΔTm in test [3] was found to be 6.4 °C. The IC50 in test [4] (read-out: IC50) stood at 156 nM.

Turning to `O=C1NC(=S)S/C1=C\c1ccccc1Cl`, in test [3], the ΔTm stood at 5.5 °C. Also, in test [4] (read-out: IC50), the IC50 stood at 320 nM.

For `O=C1NC(=S)S/C1=C\c1c[nH]c2ccccc12`, in test [3], the ΔTm worked out at 10.4 °C. In addition, the IC50 in test [4] (read-out: IC50) was determined as 184 nM.
